Drawing on the supplement of paper PMC10307832, this text covers relative viability for one cell line.

Common to all, as to experiment: relative viability (nuclei count vs DMSO), 5 days (fraction); higher = more cells survive
Compound in test [1]: CC1=CC(=C(N1C2=CC=C(C=C2)Cl)C)C(=O)CN3CCCCC3 [IU1-47] + CC(=O)Nc1cccc(-n2c(=O)n(C3CC3)c(=O)c3c(Nc4ccc(I)cc4F)n(C)c(=O)c(C)c32)c1 [Trametinib] (partner 0.02 µM)
The gist of the method: (§1)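 Nuclei were stained with Hoechst during a one-step fixation (final 0.05% Triton X-100, 1% formaldehyde, 1 ug/ml Hoechst) carried out 5 days after dosing, then counted on 4× images. The cells, lung cancer lines in 1536-well plates, had been dosed by pin tool the day after seeding with one drug alone or a fixed anchor-drug dose plus five library-drug doses (not always all listed) in √10 steps. Relative viability is the nuclei count in treated wells divided by that in vehicle wells, and each value is the median of duplicate plates.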

Compound in test [2]: CC1=CC(=C(N1C2=CC=C(C=C2)Cl)C)C(=O)CN3CCCCC3 [IU1-47] + Nc1ncn([C@H]2C[C@H](O)[C@@H](CO)O2)c(=O)n1 [Decitabine] (partner 2 µM)
The gist of the method: as §1

Compound in test [3]: Cc1nc(C(=O)NCC(=O)O)c(O)c2ccc(Oc3ccccc3)cc12 [FG-4592] + C[C@@H](Oc1cc(-c2cnn(C3CCNCC3)c2)cnc1N)c1c(Cl)ccc(F)c1Cl [Crizotinib] (partner 1 µM)
Summed up:
as §1

Compound in test [4]: Cc1nc(C(=O)NCC(=O)O)c(O)c2ccc(Oc3ccccc3)cc12 [FG-4592] + Cc1nc(NC(=O)N2CCC[C@H]2C(N)=O)sc1-c1ccnc(C(C)(C)C(F)(F)F)c1 [Alpelisib] (partner 2 µM)
Summed up:
as §1

Turning to UMC-11, the relative viability in test [1] (first compound 0.08 µM) worked out at 0.681; in test [1] (first compound 0.253 µM), 0.681; in test [1] (first compound 0.8 µM), 0.748; in test [1] (first compound 2.53 µM), 0.741; in test [1] (first compound 8 µM), 0.664; in test [2] (first compound 0.08 µM), 0.664. For the same cell line, the relative viability in test [2] (first compound 0.253 µM) amounted to 0.622; in test [2] (first compound 0.8 µM), 0.571; in test [2] (first compound 2.53 µM) it was 0.581; in test [2] (first compound 8 µM), 0.717; in test [3] (first compound 0.08 µM) it was 0.546; in test [3] (first compound 0.253 µM), 0.644. Moreover, the relative viability in test [3] (first compound 0.8 µM) was 0.582; in test [3] (first compound 2.53 µM) it was 0.642; in test [3] (first compound 8 µM), 0.536; in test [4] (first compound 0.08 µM), 1.03; in test [4] (first compound 0.253 µM), 0.944; in test [4] (first compound 0.8 µM) it was 1. Also, the relative viability in test [4] (first compound 2.53 µM) was determined as 1.18; in test [4] (first compound 8 µM), 0.998.
